Results published in PMC8899577, “Targeting the anti-apoptotic Bcl-2 family proteins: machine learning virtual screening and biological evaluation of new small molecules” (Theranostics, 2022).

Tests used:
Type in all cases: cell-based, Human
MDA-MB-231 cells = assay: Western blot of PARP1 cleavage, MDA-MB-231; conditions: 72 h
Description: Western blot analyses of total protein extracts were performed as previously described. Immunodetection was performed using antibodies directed to poly (ADP-ribose) polymerase (PARP; BD Biosciences San Diego, CA, USA), LC3B (Cell Signaling Technology, Danvers, MA), HSP72/73 (Calbiochem, EMD Biosciences, La Jolla, CA), Bcl-2 (SC-509, Santa Cruz Biotechnology Inc, Dallas, TX, USA), Bcl-xL (SC-271121, Santa Cruz Biotechnology Inc), Mcl-1 (SC-12756, Santa Cruz Biotechnology Inc) α-tubulin (Santa Cruz Biotechnology Inc) actin (Sigma-Aldrich, St. Louis, Missouri, USA). Anti-rabbit or anti-mouse immunoglobulin G-horseradish peroxidase-conjugated antibodies (Amersham Biosciences, Freiburg, Germany) were used as secondary antibody. Images were acquired by Image Lab Software (Bio-Rad, Hercules, CA, USA), using a ChemiDoc System instrument (Bio-Rad). […]
Figure 5 Analysis of apoptosis induction by IS20 and IS21 in leukemia, melanoma and NSCLC cells. […] (G) Flow cytometric quantification of cells in the subG1 peak of cell cycle distribution by propidium iodide staining in HL60 cell line treated with IS20 or IS21 (20 μM for 24 h) and in M14, H1299 and MDA-MB-231 cell lines treated with IS20 or IS21 (20 μM for 72 h). Data are reported as mean ± SD of three independent experiments. p-values were calculated between control (Ctrl) and treated cells, * p < 0.05. […]

H1299 NSCLC cells = assay: Cell viability by MTT, H1299; conditions: 20 µM for 72 h, vs control
Description: The effect of compounds on cell viability was performed by measuring 3-[4,5-dimethylthiazol-2-yl]-2,5-diphenyltetrazolium bromide inner salt (MTT, Sigma-Aldrich) dye absorbance (solid tumor cells) or by quantization of ATP present in metabolically active cells using CellTiter-Glo® Luminescent (Promega, Fitchburg, Wisconsin, USA) (hematologic cells) following manifacturer's protocol. To evaluate the cell colony-forming ability, cell suspension from different samples was seeded into 60-mm Petri dishes. After 10 days, colonies were stained with 2% methylene blue in 95% ethanol and counted (1 colony > 50 cells). The surviving fractions were calculated as the ratio of absolute survival of the treated sample/survival of DMSO-treated control sample.
Figure 4 Analysis of the effect of IS20 and IS21 on cell viability, clonogenic ability and tumor sphere formation in cancer cells. […] (B) Representative images and quantification of clonogenic ability evaluated in M14 and H1299 cells treated with IS20 or IS21 (20 μM for 72 h). […] (C) Quantification of tumor sphere formation of M14 and H1299 cells treated with IS20 or IS21 (20 μM for 72 h). […] (A-C) Data are reported as mean ± SD of three independent experiments. p-values were calculated between control (Ctrl) and treated cells, ** p < 0.001 and *** p < 0.0001.

M14 cells = assay: Western blot of LC3B-I/LC3B-II (autophagy), M14; conditions: 72 h
Description: Western blot analyses of total protein extracts were performed as previously described. Immunodetection was performed using antibodies directed to poly (ADP-ribose) polymerase (PARP; BD Biosciences San Diego, CA, USA), LC3B (Cell Signaling Technology, Danvers, MA), HSP72/73 (Calbiochem, EMD Biosciences, La Jolla, CA), Bcl-2 (SC-509, Santa Cruz Biotechnology Inc, Dallas, TX, USA), Bcl-xL (SC-271121, Santa Cruz Biotechnology Inc), Mcl-1 (SC-12756, Santa Cruz Biotechnology Inc) α-tubulin (Santa Cruz Biotechnology Inc) actin (Sigma-Aldrich, St. Louis, Missouri, USA). Anti-rabbit or anti-mouse immunoglobulin G-horseradish peroxidase-conjugated antibodies (Amersham Biosciences, Freiburg, Germany) were used as secondary antibody. Images were acquired by Image Lab Software (Bio-Rad, Hercules, CA, USA), using a ChemiDoc System instrument (Bio-Rad). The densitometric evaluation was performed using Image J software and normalized with relative controls.
Figure 6 Analysis of autophagosome accumulation in M14 and H1299 cells after treatment with IS20 or IS21. Western blot analysis of LC3B-I and LC3B-II protein levels in (A) M14, and (B) H1299 cell lines untreated (Ctrl) or treated with IS20 or IS21 for 72 h at the indicated concentrations. (C) Western blot analysis of LC3B-I and LC3B-II levels in HL60 and U937 cell lines untreated (Ctrl) or treated with IS20 or IS21 (20 μM for 24 h). (A-C) Reported images are representative of two independent experiments with similar results. HSP72/73, Actin or α-Tubulin are shown as loading and transferring control. […] Ratio of LC3B-II on LC3B-I levels, after normalization on HSP72/73, Actin or α-Tubulin, is quantified by densitometric analysis. (D) (Upper panels) Representative images and (lower panels) relative quantification of fluorescence microscopic analysis of LC3B puncta positive cells in M14 EGFP-LC3B and H1299 EGFP-LC3B transfected cells, treated with IS20 or IS21 (20 µM for 72h). […] Cells with more than 10 puncta were considered autophagy-positive. p-values were calculated between untreated (Ctrl) and treated cells, * p < 0.05.

| Compound | PARP1 cleavage, MDA-MB-231 (MDA-MB-231 cells) | cell viability H1299 (H1299 NSCLC cells) | ratio of LC3B-II on LC3B-I / LC3B-II protein level, M14 (M14 cells) |
| --- | --- | --- | --- |
| CCCCOc1ccc(C2/C(=C(\O)c3ccc4c(c3)CC(C)O4)C(=O)C(=O)N2c2nnc(SCc3ccc(Cl)cc3)s2)cc1OCC (stereo not drawn) [IS20] | not evident | significant inhibition | higher level |
| CCCCCOc1ccc(C2/C(=C(\O)c3ccc4c(c3)CC(C)O4)C(=O)C(=O)N2c2nnc(SCc3ccc(Cl)cc3)s2)cc1OCC (stereo not drawn) [IS21] | not evident | significant inhibition | higher level |
